Holding throughout (assay type): physicochemical
Data set [1] in a line: hygroscopicity of the isolated solid. As to conditions: isolated solid material, compared with the corresponding free acid. Here is the method: (1) The compound of Formula (I) is isolable as a highly pure solid material (purity of about at least 98% as determined by HPLC) and is a non-hygroscopic material as compared with the corresponding free acid (compound of Formula (V), which is obtained as syrupy material).
The precipitated solid was filtered under suction and the wet cake was washed with chilled acetone (400 ml). The non-hygroscopic solid was dried under vacuum at 40° C. for 1 hour to provide off-white colored material (sodium salt of (2S,5R)-6-benzyloxy-7-oxo-1,6-diaza-bicyclo{3.2.1}-octane-2-carboxylic acid) in 135 gm (89%, calculation adjusted for 70% purity of free acid) quantity.

Data set [2] in a line: stability study on storage at room temperature (purity by HPLC).
A short description of data set [3]: stability of the free acid on storage (attempts to prepare this compound). As to conditions: syrupy in nature. From the text:
The compound of Formula (V) i.e. (2S,5R)-6-benzyloxy-7-oxo-1,6-diaza-bicyclo[3.2.1]octane-2-carboxylic acid is disclosed in International Patent Application No. PCT/FR01/02418. […] US Patent Publication No. 20100197928 discloses a procedure to prepare a diastereomeric mixture of (S)-5-benzyloxyamino-piperidin-2-carboxylic acid benzyl ester as an oxalate salt in 50:50 ratio.

With `O=C([O-])[C@@H]1CC[C@@H]2CN1C(=O)N2OCc1ccccc1.[Na+]` [Formula (I), sodium salt of (2S,5R)-6-benzyloxy-7-oxo-1,6-diaza-bicyclo[3.2.1]octane-2-carboxylic acid], the hygroscopicity result in data set [1] is given as “non-hygroscopic”. Moreover, in data set [2] (stability study, room temperature, initial), the “purity as analyzed by HPLC, initial purity” value is given as 99.75%. For the same compound, the stability on storage entry in data set [2] (storage at room temperature for three months) is listed as “excellent stability”. For the same compound, in data set [2] (storage at room temperature, after three months), the “purity as analyzed by HPLC, purity after three months” value is listed as 99.66%. Besides, the “purity as analyzed by HPLC, purity after two moths” value in data set [2] (storage at room temperature, after two moths) worked out at 99.69%.

In the case of `O=C(O)[C@@H]1CC[C@@H]2CN1C(=O)N2OCc1ccccc1` [Formula (V), (2S,5R)-6-benzyloxy-7-oxo-1,6-diaza-bicyclo[3.2.1]octane-2-carboxylic acid], in data set [3], the stability on storage result is listed as “unstable”.

The values above are taken from patent publication US9862718B2, “Sodium salt of (2S, 5R)-6-benzyloxy-7-oxo-1,6-diaza-bicyclo [3.2.1] octane-2-carboxylic acid and its preparation” (WOCKHARDT LIMITED, priority 2013, dated 2018).
